This is an account of results in patent publication US12209087B2, “AKT1 modulators” (Alterome Therapeutics, Inc., priority 2022, dated 2025).

SMILES strings stand for the structures.

As usually defined, the IC50 is the concentration needed to halve the response being measured.

T1 sequence (P31749 whole entry E17K): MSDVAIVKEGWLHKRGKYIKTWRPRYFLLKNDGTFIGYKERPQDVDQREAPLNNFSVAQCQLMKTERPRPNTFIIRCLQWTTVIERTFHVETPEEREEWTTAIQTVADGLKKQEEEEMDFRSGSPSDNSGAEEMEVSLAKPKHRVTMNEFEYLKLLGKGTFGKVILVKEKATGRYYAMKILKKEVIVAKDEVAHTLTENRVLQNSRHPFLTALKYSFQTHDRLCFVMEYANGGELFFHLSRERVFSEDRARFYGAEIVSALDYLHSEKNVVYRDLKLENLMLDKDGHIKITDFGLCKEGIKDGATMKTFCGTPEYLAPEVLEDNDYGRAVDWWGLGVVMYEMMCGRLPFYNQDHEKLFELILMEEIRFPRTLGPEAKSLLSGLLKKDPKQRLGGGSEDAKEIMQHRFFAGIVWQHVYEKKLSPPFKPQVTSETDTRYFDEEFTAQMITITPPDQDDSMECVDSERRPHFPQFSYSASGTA

The assay concerns the target T1, full length AKT E17K (Homo sapiens, UniProt P31749, E17K).
T1 construct: host or cells: HEK-293 (ATCC CRL-1573)
The experiment in a line: NanoBRET Target Engagement (TE) Assay. As to conditions: competitive displacement of tracer in cells, read-out: AKT1 E17K IC50. The format is cell-based. The method in brief: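 Compound and tracer incubated 2 h before luminescence at donor 450 nm and acceptor 600 nm, with extracellular signal inhibited. EC50 by sigmoidal variable-slope regression.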
As to `N#Cc1ccnc(NC2CCN(Cc3ccc(-n4c(-c5cccnc5N)nc5ccc(-c6ccc(F)cc6)nc54)cc3)CC2)n1` [Example 352, 2-((1-(4-(2-(2-Aminopyridin-3-yl)-5-(4-fluorophenyl)-3H-imidazo[4,5-b]pyridin-3-yl)benzyl)piperidin-4-yl)amino)pyrimidine-4-carbonitrile], the half-maximal inhibitory concentration (IC50) was in the range of 0.015 to 0.06 µM.
Regarding `N#Cc1nccc(NC2CCN(Cc3ccc(-n4c(-c5cccnc5N)nc5ccc(-c6cccc(Cl)c6)nc54)cc3)CC2)n1` [Example 353, 4-((1-(4-(2-(2-Aminopyridin-3-yl)-5-(3-chlorophenyl)-3H-imidazo[4,5-b]pyridin-3-yl)benzyl)piperidin-4-yl)amino)pyrimidine-2-carbonitrile], the IC50 fell in the range of 0.06 to 0.6 µM.
Next, `Cn1cc(-c2ccc3nc(-c4cccnc4N)n(-c4ccc(CN5CCN(c6nccc(C#N)n6)CC5)cc4)c3n2)ccc1=O` [Example 354, 2-(4-(4-(2-(2-Aminopyridin-3-yl)-5-(1-methyl-6-oxo-1,6-dihydropyridin-3-yl)-3H-imidazo[4,5-b]pyridin-3-yl)benzyl)piperazin-1-yl)pyrimidine-4-carbonitrile]: 0.06 to 0.6 µM; `Cn1cc(-c2ccc3nc(-c4cccnc4N)n(-c4ccc(CN5CCC(Nc6ccnc(C#N)n6)CC5)cc4)c3n2)ccc1=O` [Example 355, 4-((1-(4-(2-(2-Aminopyridin-3-yl)-5-(1-methyl-6-oxo-1,6-dihydropyridin-3-yl)-3H-imidazo[4,5-b]pyridin-3-yl)benzyl)piperidin-4-yl)amino)pyrimidine-2-carbonitrile]: 0.015 to 0.06 µM; `Cn1cc(-c2ccc3nc(-c4cccnc4N)n(-c4ccc(CN5CCC(Nc6nccc(C#N)n6)CC5)cc4)c3n2)ccc1=O` [Example 356, 2-((1-(4-(2-(2-Aminopyridin-3-yl)-5-(1-methyl-6-oxo-1,6-dihydropyridin-3-yl)-3H-imidazo[4,5-b]pyridin-3-yl)benzyl)piperidin-4-yl)amino)pyrimidine-4-carbonitrile]: 0.06 to 0.6 µM.
For the compound `N#Cc1nccc(NC2CCN(Cc3ccc(-n4c(-c5cccnc5N)nc5ccc(-c6cccc(F)c6)nc54)cc3)CC2)n1` [Example 357, 4-((1-(4-(2-(2-Aminopyridin-3-yl)-5-(3-fluorophenyl)-3H-imidazo[4,5-b]pyridin-3-yl)benzyl)piperidin-4-yl)amino)pyrimidine-2-carbonitrile], the half-inhibitory concentration (IC50) lay in the range of 0.015 to 0.06 µM.
In the case of `N#Cc1ccnc(NC2CCN(Cc3ccc(-n4c(-c5cccnc5N)nc5ccc(-c6cccc(F)c6)nc54)cc3)CC2)n1` [Example 358, 2-((1-(4-(2-(2-Aminopyridin-3-yl)-5-(3-fluorophenyl)-3H-imidazo[4,5-b]pyridin-3-yl)benzyl)piperidin-4-yl)amino)pyrimidine-4-carbonitrile], the IC50 was 0.015 to 0.06 µM.
Take `Cn1ccc(-c2ccc3nc(-c4cccnc4N)n(-c4ccc(CN5CCC(Nc6ccnc(C#N)n6)CC5)cc4)c3n2)cc1=O` [Example 359, 4-((1-(4-(2-(2-aminopyridin-3-yl)-5-(1-methyl-2-oxo-1,2-dihydropyridin-4-yl)-3H-imidazo[4,5-b]pyridin-3-yl)benzyl)piperidin-4-yl)amino)pyrimidine-2-carbonitrile]: the IC50 was less than 0.015 µM.
Turning to `Cn1ccc(-c2ccc3nc(-c4cccnc4N)n(-c4ccc(CN5CCC(Nc6nccc(C#N)n6)CC5)cc4)c3n2)cc1=O` [Example 360, 2-((1-(4-(2-(2-Aminopyridin-3-yl)-5-(1-methyl-2-oxo-1,2-dihydropyridin-4-yl)-3H-imidazo[4,5-b]pyridin-3-yl)benzyl)piperidin-4-yl)amino)pyrimidine-4-carbonitrile], the IC50 fell in the range of 0.06 to 0.6 µM.
The figure for `N#Cc1nccc(N2CC3(CCN(Cc4ccc(-n5c(-c6cccnc6N)nc6ccc(-c7ccccc7)nc65)cc4)CC3)C2)n1` [Example 361, 4-(7-(4-(2-(2-Aminopyridin-3-yl)-5-phenyl-3H-imidazo[4,5-b]pyridin-3-yl)benzyl)-2,7-diazaspiro[3.5]nonan-2-yl)pyrimidine-2-carbonitrile] is less than 0.015 µM.
With `N#Cc1nccc(NC2CC3(CCN(Cc4ccc(-n5c(-c6cccnc6N)nc6ccc(-c7ccccc7)nc65)cc4)CC3)C2)n1` [Example 362, 4-((7-(4-(2-(2-Aminopyridin-3-yl)-5-phenyl-3H-imidazo[4,5-b]pyridin-3-yl)benzyl)-7-azaspiro[3.5]nonan-2-yl)amino)pyrimidine-2-carbonitrile], the IC50 was less than 0.015 µM.
Next, `N#Cc1ncnc(N2CCC3(CCN(Cc4ccc(-n5c(-c6cccnc6N)nc6ccc(-c7ccccc7)nc65)cc4)CC3)C2)n1` [Example 363, 4-(8-(4-(2-(2-Aminopyridin-3-yl)-5-phenyl-3H-imidazo[4,5-b]pyridin-3-yl)benzyl)-2,8-diazaspiro[4.5]decan-2-yl)-1,3,5-triazine-2-carbonitrile]: 0.015 to 0.06 µM; `N#Cc1nccc(N2CCC3(CCN(Cc4ccc(-n5c(-c6cccnc6N)nc6ccc(-c7ccccc7)nc65)cc4)CC3)CC2)n1` [Example 364, 4-(9-(4-(2-(2-Aminopyridin-3-yl)-5-phenyl-3H-imidazo[4,5-b]pyridin-3-yl)benzyl)-3,9-diazaspiro[5.5]undecan-3-yl)pyrimidine-2-carbonitrile]: 0.015 to 0.06 µM; `N#Cc1ncnc(N2CCC3(CCN(Cc4ccc(-n5c(-c6cccnc6N)nc6ccc(-c7ccccc7)nc65)cc4)CC3)CC2)n1` [Example 365, 4-(9-(4-(2-(2-Aminopyridin-3-yl)-5-phenyl-3H-imidazo[4,5-b]pyridin-3-yl)benzyl)-3,9-diazaspiro[5.5]undecan-3-yl)-1,3,5-triazine-2-carbonitrile]: 0.015 to 0.06 µM.
Next, `N#Cc1nccc(N2CC3(CN(Cc4ccc(-n5c(-c6cccnc6N)nc6ccc(-c7ccccc7)nc65)cc4)C3)C2)n1` [Example 366, 4-(6-(4-(2-(2-Aminopyridin-3-yl)-5-phenyl-3H-imidazo[4,5-b]pyridin-3-yl)benzyl)-2,6-diazaspiro[3.3]heptan-2-yl)pyrimidine-2-carbonitrile]: less than 0.015 µM; `N#Cc1nccc(N2C[C@@H]3CN(Cc4ccc(-n5c(-c6cccnc6N)nc6ccc(-c7ccccc7)nc65)cc4)C[C@H]3C2)n1` [Example 367, 4-((3aS,6aS)-5-(4-(2-(2-aminopyridin-3-yl)-5-phenyl-3H-imidazo[4,5-b]pyridin-3-yl)benzyl)hexahydropyrrolo[3,4-c]pyrrol-2(1H)-yl)pyrimidine-2-carbonitrile]: less than 0.015 µM; `N#Cc1ncnc(N2CCN(Cc3ccc(-n4c(-c5cccnc5N)nc5ccc(-c6ccc(F)cc6)nc54)cc3)CC2)n1` [Example 368, 4-(4-(4-(2-(2-Aminopyridin-3-yl)-5-(4-fluorophenyl)-3H-imidazo[4,5-b]pyridin-3-yl)benzyl)piperazin-1-yl)-1,3,5-triazine-2-carbonitrile]: less than 0.015 µM.
The figure for `N#Cc1ncnc(N2CCN(Cc3ccc(-n4c(-c5cccnc5N)nc5ccc(-c6ccc(Cl)cc6)nc54)cc3)CC2)n1` [Example 369, 4-(4-(4-(2-(2-Aminopyridin-3-yl)-5-(4-chlorophenyl)-3H-imidazo[4,5-b]pyridin-3-yl)benzyl)piperazin-1-yl)-1,3,5-triazine-2-carbonitrile] is 0.015 to 0.06 µM.
As to `N#Cc1nccc(NC2CCN(Cc3ccc(-n4c(-c5cccnc5N)nc5ccc(-c6ccc(F)cc6)nc54)cc3)CC2)n1` [Example 370, 4-((1-(4-(2-(2-Aminopyridin-3-yl)-5-(4-fluorophenyl)-3H-imidazo[4,5-b]pyridin-3-yl)benzyl)piperidin-4-yl)amino)pyrimidine-2-carbonitrile], the 50% inhibitory concentration (IC50) is less than 0.015 µM.
Consider `N#Cc1ccnc(NC2CCN(Cc3ccc(-n4c(-c5cccnc5N)nc5ccc(-c6ccc(Cl)cc6)nc54)cc3)CC2)n1` [Example 371, 2-((1-(4-(2-(2-Aminopyridin-3-yl)-5-(4-chlorophenyl)-3H-imidazo[4,5-b]pyridin-3-yl)benzyl)piperidin-4-yl)amino)pyrimidine-4-carbonitrile], for which the IC50 was in the range of 0.06 to 0.6 µM.
Regarding `N#Cc1ccnc(NC2CCN(Cc3ccc(-n4c(-c5cccnc5N)nc5ccc(-c6cccc(Cl)c6)nc54)cc3)CC2)n1` [Example 372, 2-((1-(4-(2-(2-Aminopyridin-3-yl)-5-(3-chlorophenyl)-3H-imidazo[4,5-b]pyridin-3-yl)benzyl)piperidin-4-yl)amino)pyrimidine-4-carbonitrile], the IC50 lay in the range of 0.015 to 0.06 µM.
`N#Cc1cc(NC2CCN(Cc3ccc(-n4c(-c5cccnc5N)nc5ccc(-c6cccc(Cl)c6)nc54)cc3)CC2)ncn1` [Example 373, 6-((1-(4-(2-(2-Aminopyridin-3-yl)-5-(3-chlorophenyl)-3H-imidazo[4,5-b]pyridin-3-yl)benzyl)piperidin-4-yl)amino)pyrimidine-4-carbonitrile]: the IC50 was 0.015 to 0.06 µM.
The figure for `N#Cc1cc(N2CCN(Cc3ccc(-n4c(-c5cccnc5N)nc5ccc(-c6cccc(Cl)c6)nc54)cc3)CC2)ncn1` [Example 374, 6-(4-(4-(2-(2-Aminopyridin-3-yl)-5-(3-chlorophenyl)-3H-imidazo[4,5-b]pyridin-3-yl)benzyl)piperazin-1-yl)pyrimidine-4-carbonitrile] is 0.015 to 0.06 µM.
`N#Cc1nccc(N2C[C@@H]3C[C@H]2CN3Cc2ccc(-n3c(-c4cccnc4N)nc4ccc(-c5ccccc5)nc43)cc2)n1` [Example 375, 4-((1S,4S)-5-(4-(2-(2-Aminopyridin-3-yl)-5-phenyl-3H-imidazo[4,5-b]pyridin-3-yl)benzyl)-2,5-diazabicyclo[2.2.1]heptan-2-yl)pyrimidine-2-carbonitrile]: the half-inhibitory concentration (IC50) was 0.015 to 0.06 µM.
Take `N#Cc1cc(N2C[C@@H]3C[C@H]2CN3Cc2ccc(-n3c(-c4cccnc4N)nc4ccc(-c5ccccc5)nc43)cc2)ncn1` [Example 376, 6-((1S,4S)-5-(4-(2-(2-Aminopyridin-3-yl)-5-phenyl-3H-imidazo[4,5-b]pyridin-3-yl)benzyl)-2,5-diazabicyclo[2.2.1]heptan-2-yl)pyrimidine-4-carbonitrile]: the concentration for half-maximal inhibition (IC50) lay within 0.06 to 0.6 µM.
